Values after ≈ are worked out from the molar mass of the structure shown. Read-outs that look alike come from different tables or passages of the source.
Tests used:
[1] = test system: Clostridioides difficile infection; conditions: CDI patients; cited from earlier work
[2] = test system: C. difficile strains; conditions: cited from earlier work
[3] = test system: E. faecalis; experiment: MIC against E. faecalis strains; type: cell-based; conditions: Enterococcus faecalis
[4] = test system: C. difficile ATCC 43255 vegetative cells; experiment: Mode of action by scanning electron microscopy (SEM); conditions: 8× MIC for 24 h
[5] = test system: S. pyogenes ATCC 49399; experiment: MIC against S. pyogenes; type: cell-based; conditions: Streptococcus pyogenes, ATCC49399

Cc1ncc([N+](=O)[O-])n1CCO [MTZ, metronidazole]
recurrence of infection [1]: 27%
IMIC50 (101 strains) ([2]; 101 C. difficile strains): 0.5 µg/mL
MIC ([2]; C. difficile 23828, resistant to FDX): 0.5 µg/mL (≈ 2.92 µM)
MIC ([2]; C. difficile 24531, resistant to VAN): 0.5 µg/mL (≈ 2.92 µM)
MIC ([2]; C. difficile 26675, resistant to MTZ): 4 µg/mL (≈ 23.4 µM)
MIC ([2]; C. difficile BAA-1803): 0.5 µg/mL (≈ 2.92 µM)
MIC ([2]; C. difficile BAA-1870): 0.5 µg/mL (≈ 2.92 µM)
MIC50 ([2]; C. difficile strains of Table 4): 0.5 µg/mL (≈ 2.92 µM)
MIC ([2]; strain BAA-1803): 0.5 µg/mL (≈ 2.92 µM)
MIC ([2]; strain BAA-1870): 0.5 µg/mL (≈ 2.92 µM)
MIC ([2]; strain HM-745): 0.5 µg/mL (≈ 2.92 µM)
MIC ([2]; strain HM-747): 0.5 µg/mL (≈ 2.92 µM)
MIC ([2]; strain NR-13430): 0.5 µg/mL (≈ 2.92 µM)
MIC ([2]; strain NR-13431): 0.5 µg/mL (≈ 2.92 µM)
MIC ([2]; strain NR-13433): 0.5 µg/mL (≈ 2.92 µM)
MIC ([2]; strain NR-13434): 0.5 µg/mL (≈ 2.92 µM)
MIC ([2]; strain NR-13435): 0.5 µg/mL (≈ 2.92 µM)
MIC ([2]; strain NR-13436): 0.5 µg/mL (≈ 2.92 µM)
MIC ([2]; strain NR-13437): 0.5 µg/mL (≈ 2.92 µM)
MIC ([2]; strain NR-13438): 0.5 µg/mL (≈ 2.92 µM)
MIC ([2]; strain NR-13553): 0.5 µg/mL (≈ 2.92 µM)
MIC ([2]; strain NR-32883): 0.5 µg/mL (≈ 2.92 µM)
MIC ([2]; strain NR-32884): 0.5 µg/mL (≈ 2.92 µM)
MIC ([2]; strain NR-32885): 0.5 µg/mL (≈ 2.92 µM)
MIC ([2]; strain NR-32886): 0.5 µg/mL (≈ 2.92 µM)
MIC ([2]; strain NR-32888): 0.5 µg/mL (≈ 2.92 µM)
MIC ([2]; strain NR-32890): 0.5 µg/mL (≈ 2.92 µM)
MIC ([2]; strain NR-32892): 0.5 µg/mL (≈ 2.92 µM)
MIC ([2]; strain NR-32897): 0.5 µg/mL (≈ 2.92 µM)
MIC ([2]; strain NR-32903): 0.5 µg/mL (≈ 2.92 µM)
MIC ([2]; strain NR-32904): 0.5 µg/mL (≈ 2.92 µM)
MIC ([2]; strain NR-49277): 0.5 µg/mL (≈ 2.92 µM)
MIC ([2]; strain NR-49278): 0.5 µg/mL (≈ 2.92 µM)
MIC ([2]; strain NR-49282): 0.5 µg/mL (≈ 2.92 µM)
MIC ([2]; strain NR-49283): 0.5 µg/mL (≈ 2.92 µM)
MIC ([2]; strain NR-49284): 0.5 µg/mL (≈ 2.92 µM)
MIC ([2]; strain NR-49285): 0.5 µg/mL (≈ 2.92 µM)
MIC ([2]; strain NR-49287): 0.5 µg/mL (≈ 2.92 µM)
MIC ([2]; strain NR-49288): 0.5 µg/mL (≈ 2.92 µM)
MIC ([2]; strain NR-49289): 0.5 µg/mL (≈ 2.92 µM)
MIC ([2]; strain NR-49293): 0.5 µg/mL (≈ 2.92 µM)
MIC ([2]; strain NR-49295): 0.5 µg/mL (≈ 2.92 µM)
MIC ([2]; strain NR-49296): 0.5 µg/mL (≈ 2.92 µM)
MIC ([2]; strain NR-49297): 0.5 µg/mL (≈ 2.92 µM)
MIC ([2]; strain NR-49299): 0.5 µg/mL (≈ 2.92 µM)
MIC ([2]; strain NR-49300): 0.5 µg/mL (≈ 2.92 µM)
MIC ([2]; strain NR-49301): 0.5 µg/mL (≈ 2.92 µM)
MIC ([2]; strain NR-49303): 0.5 µg/mL (≈ 2.92 µM)
MIC ([2]; strain NR-49304): 0.5 µg/mL (≈ 2.92 µM)
MIC ([2]; strain NR-49306): 0.5 µg/mL (≈ 2.92 µM)
MIC ([2]; strain NR-49307): 0.5 µg/mL (≈ 2.92 µM)
MIC ([2]; strain NR-49308): 0.5 µg/mL (≈ 2.92 µM)
MIC ([2]; strain NR-49311): 0.5 µg/mL (≈ 2.92 µM)
MIC ([2]; strain NR-49312): 0.5 µg/mL (≈ 2.92 µM)
MIC ([2]; strain NR-49313): 0.5 µg/mL (≈ 2.92 µM)
MIC ([2]; strain NR-49314): 0.5 µg/mL (≈ 2.92 µM)
MIC ([2]; strain NR-49315): 0.5 µg/mL (≈ 2.92 µM)
MIC ([2]; strain NR-49316): 0.5 µg/mL (≈ 2.92 µM)
MIC ([2]; strain NR-49317): 0.5 µg/mL (≈ 2.92 µM)
MIC ([2]; strain NR-49319): 0.5 µg/mL (≈ 2.92 µM)
MIC ([2]; strain NR-49320): 0.5 µg/mL (≈ 2.92 µM)
MIC ([2]; strain NR-49321): 0.5 µg/mL (≈ 2.92 µM)
MIC ([2]; strain NR-49325): 0.5 µg/mL (≈ 2.92 µM)
MIC ([2]; strain NR-49326): 0.5 µg/mL (≈ 2.92 µM)
MIC ([2]; strain NR-49327): 0.5 µg/mL (≈ 2.92 µM)
MIC ([2]; strain RMA23691): 0.5 µg/mL (≈ 2.92 µM)
MIC ([2]; strain RMA23828): 0.5 µg/mL (≈ 2.92 µM)
MIC ([2]; strain RMA24531): 0.5 µg/mL (≈ 2.92 µM)
MIC ([2]; strain RMA26675): 4 µg/mL (≈ 23.4 µM)
MIC ([2]; strain RMA27081): 0.5 µg/mL (≈ 2.92 µM)
MIC ([2]; strain RMA27173): 4 µg/mL (≈ 23.4 µM)
MIC [3]: > 256 µg/mL
MIC ([3]; ATCC29212): > 256 µg/mL
effect on vegetative cells by SEM [4]: No obvious effect
MIC [5]: > 128 µg/mL

Source: patent US20260125371A1, “METHOD FOR INHIBITING CLOSTRIDIOIDES DIFFICILE SPORE GERMINATION” (UNIVERSITY OF NOTRE DAME DU LAC, priority 2022, published 2026)
